What all share (format): functional
In assay [1] the test system is Staphylococcus aureus. Nature of the assay: Antimicrobial activity against linezolid-resistant Staphylococcus aureus by CLSI method.
Assay [2] concerns Staphylococcus. Put plainly: Antimicrobial activity against linezolid-resistant coagulase-negative Staphylococcus assessed as percent susceptible strain by CLSI method.
Assay [3] has as its system Staphylococcus aureus. Put plainly: Antimicrobial activity against oxacillin-susceptible Staphylococcus aureus assessed as percent susceptible strain by CLSI method.
Assay [4] concerns Staphylococcus. Put plainly: Antimicrobial activity against linezolid-resistant coagulase-negative Staphylococcus by CLSI method.
Assay [5] deals with Staphylococcus aureus. Put plainly: Antimicrobial activity against methicillin-resistant Staphylococcus aureus by CLSI method.
In assay [6] the test system is Staphylococcus aureus. Nature of the assay: Antimicrobial activity against oxacillin-susceptible Staphylococcus aureus by CLSI method.
Assay [7] can be described thus: Antimicrobial activity against oxacillin-susceptible coagulase-negative Staphylococcus aureus assessed as percent susceptible strain by CLSI method.
Assay [8] concerns Staphylococcus. Nature of the assay: Antimicrobial activity against linezolid-susceptible coagulase-negative Staphylococcus by CLSI method.
Assay [9] has as its system Staphylococcus. Put plainly: Antimicrobial activity against linezolid-susceptible coagulase-negative Staphylococcus assessed as percent susceptible strain by CLSI method.
The test system of assay [10] is Staphylococcus aureus. Put plainly: Antimicrobial activity against linezolid-susceptible Staphylococcus aureus assessed as percent susceptible strain by CLSI method.
For assay [11], the system named is Staphylococcus. Put plainly: Antimicrobial activity against oxacillin-resistant coagulase-negative Staphylococcus aureus by CLSI method.
Assay [12] has as its system Staphylococcus aureus. Nature of the assay: Antimicrobial activity against oxacillin-resistant Staphylococcus aureus by CLSI method.
Assay [13] deals with Staphylococcus aureus. Nature of the assay: Antimicrobial activity against linezolid-susceptible Staphylococcus aureus by CLSI method.
Assay [14] relates to Staphylococcus. Nature of the assay: Antimicrobial activity against oxacillin-susceptible coagulase-negative Staphylococcus aureus by CLSI method.
Assay [15] has as its system Staphylococcus. Put plainly: Antimicrobial activity against Linezolid and methicillin-resistant coagulase-negative Staphylococcus by CLSI method.

Converted amounts (≈) assume the structure as drawn. The source made the active and inactive calls. No cut-off for these calls is given here. Some results are limits rather than exact numbers.

Usually MIC50 stands for the lowest concentration that inhibits either 50% of growth or 50% of the strains tested, depending on the study. A low value points to higher susceptibility. The term MIC90 denotes the lowest concentration that inhibits either 90% of growth or 90% of the strains tested, depending on the study. Low values mean higher susceptibility, high ones lower susceptibility. For the compound `CC(=O)N[C@@H]1[C@H](Oc2c3cc4cc2Oc2ccc(cc2Cl)[C@@H](O[C@@H]2O[C@@H](CO)[C@@H](O)[C@H](O)[C@@H]2NC(C)=O)[C@@H]2NC(=O)[C@H](NC(=O)[C@@H]4NC(=O)[C@H]4NC(=O)[C@@H](Cc5ccc(c(Cl)c5)O3)NC(=O)[C@H](N)c3ccc(O)c(c3)Oc3cc(O)cc4c3)c3ccc(O)c(c3)-c3c(O[C@H]4O[C@H](CO)[C@@H](O)[C@@H](O)[C@@H]4O)cc(O)cc3[C@@H](C(=O)O)NC2=O)O[C@@H](CO)[C@@H](O)[C@@H]1O`, the MIC50 was 1 µg/mL (≈ 0.566 µM) against Staphylococcus aureus [1]; 4 µg/mL (≈ 2.26 µM) in the assay with Staphylococcus [4]; not above 0.5 µg/mL against Staphylococcus aureus [6]; 2 µg/mL (≈ 1.13 µM) against Staphylococcus [8]; 2 µg/mL (≈ 1.13 µM) against Staphylococcus [11]; 2 µg/mL (≈ 1.13 µM) with Staphylococcus [14]. Further, the Activity was found to be 80% with Staphylococcus [2]; 100% in the assay on Staphylococcus aureus [3]; 100% in assay [7]; 94.5% in the assay on Staphylococcus [9]; 100% with Staphylococcus aureus [10]. Besides, in the assay on Staphylococcus aureus [5], the outcome was Active. Also, the MIC90 stood at 1 µg/mL (≈ 0.566 µM) in the assay with Staphylococcus aureus [6]; 8 µg/mL (≈ 4.53 µM) against Staphylococcus [8]; 8 µg/mL (≈ 4.53 µM) against Staphylococcus [11]; 1 µg/mL (≈ 0.566 µM) in the assay with Staphylococcus aureus [12]; 1 µg/mL (≈ 0.566 µM) in the assay with Staphylococcus aureus [13]; 4 µg/mL (≈ 2.26 µM) against Staphylococcus [14].
The term MIC denotes the lowest concentration that inhibits growth of the organism. Low values mean inhibition by little substance, high ones a need for much substance. As for `CCCCCCCCCC(=O)N[C@@H](Cc1c[nH]c2ccccc12)C(=O)N[C@H](CC(N)=O)C(=O)N[C@@H](CC(=O)O)C(=O)N[C@@H]1C(=O)NCC(=O)N[C@@H](CCCN)C(=O)N[C@@H](CC(=O)O)C(=O)N[C@H](C)C(=O)N[C@@H](CC(=O)O)C(=O)NCC(=O)N[C@H](CO)C(=O)N[C@@H]([C@H](C)CC(=O)O)C(=O)N[C@@H](CC(=O)c2ccccc2N)C(=O)O[C@@H]1C`, the MIC50 is 0.5 µg/mL (≈ 0.309 µM) against Staphylococcus aureus [1]; 0.5 µg/mL (≈ 0.309 µM) against Staphylococcus [4]; 0.25 µg/mL (≈ 0.154 µM) in the assay on Staphylococcus aureus [6]; 0.25 µg/mL (≈ 0.154 µM) in the assay on Staphylococcus [8]; 0.25 µg/mL (≈ 0.154 µM) in the assay on Staphylococcus [11]; 0.5 µg/mL (≈ 0.309 µM) against Staphylococcus aureus [12]. For the same compound, the MIC50 against Staphylococcus aureus [13] and in the assay on Staphylococcus [14] was 0.25 µg/mL (≈ 0.154 µM) each time. For the same compound, the Activity (in the assay with Staphylococcus aureus [3]; in assay [7]; with Staphylococcus [9]; in the assay on Staphylococcus aureus [10]) was 100% throughout. Moreover, the result in the assay with Staphylococcus aureus [5] was Active. Moreover, the MIC90 in the assay on Staphylococcus aureus [6], in the assay on Staphylococcus [8], in the assay on Staphylococcus [11], against Staphylococcus aureus [12], against Staphylococcus aureus [13] and in the assay on Staphylococcus [14] was 0.5 µg/mL (≈ 0.309 µM) throughout. The same compound returned an MIC in the assay on Staphylococcus [15] of 0.5 µg/mL (≈ 0.309 µM).

The record behind these values is ChEMBL document CHEMBL1255438, “Comparative activities of TR-700 (torezolid) against staphylococcal blood isolates collected in Spain” (2010).
